What all share (format): in vivo
In experiment [1] the test system is Beet Armyworm (BAW) (Spodoptera exigua). Kind of experiment: Bioassay on beet armyworm (BAW), 128-well diet tray assay. To be noted: 168 h, read-out: % Mortality BAW 50 μg/cm^2. As for the experimental part:
(§1) Certain molecules disclosed in this document were tested against BAW and CEW using procedures described in the following examples. In the reporting of the results, the “BAW & CEW Rating Table” was used (See Table Section).
Bioassays on BAW (Spodoptera exigua)
Bioassays on BAW were conducted using a 128-well diet tray assay. One to five second instar BAW larvae were placed in each well (3 mL) of the diet tray that had been previously filled with 1 mL of artificial diet to which 50 μg/cm^2 of the test compound (dissolved in 50 μL of 90:10 acetone-water mixture) had been applied (to each of eight wells) and then allowed to dry. Trays were covered with a clear self-adhesive cover, and held at 25° C., 14:10 light-dark for five to seven days. Percent mortality was recorded for the larvae in each well; activity in the eight wells was then averaged. The results are indicated in the table entitled “Table: Bio Results” (See Table Section).

Experiment [2] deals with Corn Earworm (CEW) (Helicoverpa zea). As to the kind of experiment: Bioassay on corn earworm (CEW), 128-well diet tray assay. To be noted: 168 h, read-out: % Mortality CEW 50 μg/cm^2. As for the experimental part:
as §1
Bioassays on CEW (Helicoverpa zea)
Bioassays on CEW were conducted using a 128-well diet tray assay. One to five second instar CEW larvae were placed in each well (3 mL) of the diet tray that had been previously filled with 1 mL of artificial diet to which 50 μg/cm^2 of the test compound (dissolved in 50 μL of 90:10 acetone-water mixture) had been applied (to each of eight wells) and then allowed to dry. Trays were covered with a clear self-adhesive cover, and held at 25° C., 14:10 light-dark for five to seven days. Percent mortality was recorded for the larvae in each well; activity in the eight wells was then averaged. The results are indicated in the table entitled “Table: Bio Results” (See Table Section).

The subject of experiment [3] is Green Peach Aphid (GPA) (Myzus persicae). Kind of experiment: Bioassay on green peach aphid (GPA), foliar spray on cabbage seedlings. To be noted: 72 h, read-out: % Mortality GPA 200 ppm. As for the experimental part:
Certain molecules disclosed in this document were tested against GPA using procedures described in the following example. In the reporting of the results, the “GPA Rating Table” was used (See Table Section).
Cabbage seedlings grown in 3-inch pots, with 2-3 small (3-5 cm) true leaves, were used as test substrate. The seedlings were infested with 20-50 GPA (wingless adult and nymph stages) one day prior to chemical application. Four pots with individual seedlings were used for each treatment. Test compounds (2 mg) were dissolved in 2 mL of acetone/methanol (1:1) solvent, forming stock solutions of 1000 ppm test compound. The stock solutions were diluted 5× with 0.025% Tween 20 in H2O to obtain the solution at 200 ppm test compound. A hand-held aspirator-type sprayer was used for spraying a solution to both sides of […] leaves until runoff. Reference plants (solvent check) were sprayed with the diluent only containing 20% by volume of acetone/methanol (1:1) solvent. Treated plants were held in a holding room for three days at approximately 25° C. and ambient relative humidity (RH) prior to grading. Evaluation was conducted by counting the number of live aphids per plant under a microscope. Percent Control was measured by using Abbott's correction formula (W. S. Abbott, “A Method of Computing the Effectiveness of an Insecticide” J. Econ. Entomol. 18 (1925), pp. 265-267) as follows. Corrected % Control=100*(X−Y)/X • where • X=No. of live aphids on solvent check plants and • Y=No. of live aphids on treated plants

Where [4] appears, read: 50 μg/cm^2 on artificial diet, second instar larvae, 25° C., five to seven days, average of eight wells.
[5] abbreviates: 200 ppm foliar spray on cabbage seedlings, graded after three days, Abbott corrected % control.

Read-outs that look alike come from different tables or passages of the source.

For `CC(OC(=O)NC1CC1c1ccc(-c2ncn(-c3ccc(OC(F)(F)F)cc3)n2)cc1)c1ccccn1` (centres unmarked) [Compound 20, 1-(Pyridin-2-yl)ethyl 2-(4-(1-(4-(trifluoromethoxy)phenyl)-1H-1,2,4-triazol-3-yl)phenyl)-cyclopropylcarbamate], the mortality at 50 µg/cm2 in experiment [1] and in experiment [2] was 50 to 100% throughout. The mortality at 200 ppm in experiment [3] (foliar) lay in the range of 0 to 80%.

For `O=C(NC1CC1c1ccc(-c2ncn(-c3ccc(OC(F)(F)F)cc3)n2)cc1)Oc1ccccc1C(F)(F)F` (centres unmarked) [Compound 25, 2-(Trifluoromethyl)phenyl 2-(4-(1-(4-(trifluoromethoxy)phenyl)-1H-1,2,4-triazol-3-yl)-phenyl)cyclopropylcarbamate], the mortality at 50 µg/cm2 in experiment [1] and in experiment [2] was 0% throughout. Further, in experiment [3] (foliar), the mortality at 200 ppm was in the range of 0 to 80%.

Turning to `CC(OC(=O)NC1CC1c1ccc(-c2ncn(-c3ccc(OC(F)(F)F)cc3)n2)cc1)c1ccccc1` (centres unmarked) [Compound 19, 1-Phenylethyl 2-(4-(1-(4-(trifluoromethoxy)phenyl)-1H-1,2,4-triazol-3-yl)phenyl)-cyclopropylcarbamate], the mortality at 50 µg/cm2 was 0% in experiment [1] and 50 to 100% in experiment [2]. In addition, the mortality at 200 ppm in experiment [3] (foliar) lay within 0 to 80%.

On to `FC(F)(F)Oc1ccc(-n2cnc(-c3ccc(C4CC4NC(=S)Nc4c(Cl)cccc4Cl)cc3)n2)cc1` (centres unmarked) [Compound 2, 1-(2,6-Dichlorophenyl)-3-(2-{4-[1-(4-trifluoromethoxyphenyl)-1H-[1,2,4]triazol-3-yl]phenyl}cyclopropyl)thiourea], for which the mortality at 50 µg/cm2 in experiment [1] (setting [4]) and in experiment [2] (setting [4]) was 50 to 100% each time. Moreover, the mortality at 200 ppm in experiment [3] (setting [5]) lay in the range of 0 to 80%.

Regarding `CC(C)(C)OC(=O)NC1CC1c1ccc(-c2ncn(-c3ccc(OC(F)(F)F)cc3)n2)cc1` (centres unmarked) [Compound 17, tert-Butyl 2-(4-(1-(4-(trifluoromethoxy)phenyl)-1H-1,2,4-triazol-3-yl)phenyl)-cyclopropylcarbamate], the mortality at 50 µg/cm2 in experiment [1] (setting [4]) and in experiment [2] (setting [4]) was 50 to 100% each time. For the same compound, the mortality at 200 ppm in experiment [3] (setting [5]) is 0%.

For the compound `Cc1cc(C)c(NC(=O)NC2CC2c2ccc(-c3ncn(-c4ccc(OC(F)(F)F)cc4)n3)cc2)c(C)c1` (centres unmarked) [Compound 30, 1-Mesityl-3-(2-(4-(1-(4-(trifluoromethoxy)phenyl)-1H-1,2,4-triazol-3-yl)phenyl)-cyclopropyl)urea], the mortality at 50 µg/cm2 in experiment [1] (setting [4]) and in experiment [2] (setting [4]) was 0% each time. The mortality at 200 ppm in experiment [3] (setting [5]) was 0 to 80%.

For the compound `Cc1cccc(C)c1/N=C(/NC1CC1c1ccc(-c2ncn(-c3ccc(OC(F)(F)F)cc3)n2)cc1)SCOC(=O)C(C)C` (centres unmarked) [Compound 15, (Z)-(N′-(2,6-dimethylphenyl)-N-(2-(4-(1-(4-(trifluoromethoxy)phenyl)-1H-1,2,4-triazol-3-yl)phenyl)cyclopropyl)-carbamimidoylthio)methyl isobutyrate], the mortality at 200 ppm in experiment [3] (setting [5]) fell in the range of 0 to 80%.

Take `O=C(NC1CC1c1ccc(-c2ncn(-c3ccc(OC(F)(F)F)cc3)n2)cc1)Oc1ccccc1` (centres unmarked) [Compound 21, Phenyl 2-(4-(1-(4-(trifluoromethoxy)phenyl)-1H-1,2,4-triazol-3-yl)phenyl)cyclopropyl-carbamate]: the mortality at 50 µg/cm2 in experiment [1] and in experiment [2] was 50 to 100% throughout. For the same compound, the mortality at 200 ppm in experiment [3] (foliar) was found to be 0%.

With `COc1cc(C)c(NC(=S)NC2CC2c2ccc(-c3ncn(-c4ccc(OC(F)(F)F)cc4)n3)cc2)c(C)n1` (centres unmarked) [Compound 14, 1-(6-Methoxy-2,4-dimethylpyridin-3-yl)-3-(2-(4-(1-(4-(trifluoromethoxy)-phenyl)-1H-1,2,4-triazol-3-yl)phenyl)cyclopropyl)thiourea], the mortality at 50 µg/cm2 in experiment [1] (setting [4]) and in experiment [2] (setting [4]) was 50 to 100% each time. Further, the mortality at 200 ppm in experiment [3] (setting [5]) was in the range of 0 to 80%.

Regarding `O=C(NC1CC1c1ccc(-c2ncn(-c3ccc(OC(F)(F)F)cc3)n2)cc1)NC1CC1c1ccc(-c2ncn(-c3ccc(OC(F)(F)F)cc3)n2)cc1` (centres unmarked) [Compound 32, 1,3-bis(2-(4-(1-(4-(trifluoromethoxy)phenyl)-1H-1,2,4-triazol-3-yl)phenyl)cyclopropyl)urea], the mortality at 50 µg/cm2 in experiment [1] (setting [4]) was 0%; in experiment [2] (setting [4]), 50 to 100%. The mortality at 200 ppm in experiment [3] (setting [5]) was in the range of 0 to 80%.

Regarding `CCc1cccc(CC)c1NC(=S)NC1CC1c1ccc(-c2ncn(-c3ccc(OC(F)(F)F)cc3)n2)cc1` (centres unmarked) [Compound 6, 1-(2,6-Diethylphenyl)-3-(2-{4-[1-(4-trifluoromethoxyphenyl)-1H-[1,2,4]triazol-3-yl]phenyl}cyclopropyl)thiourea], the mortality at 50 µg/cm2 in experiment [1] (setting [4]) and in experiment [2] (setting [4]) was 50 to 100% in each case. In experiment [3] (setting [5]), the mortality at 200 ppm lay in the range of 0 to 80%.

For the compound `Cc1cccc(C)c1NC(=S)NC1CC1c1ccc(-c2ncn(-c3ccc(OC(F)(F)F)cc3)n2)cc1` (centres unmarked) [Compound 12, 1-(2,6-Dimethylphenyl)-3-(2-(4-(1-(4-(trifluoromethoxy)phenyl)-1H-1,2,4-triazol-3-yl)phenyl)cyclopropyl)thiourea], the mortality at 50 µg/cm2 in experiment [1] (setting [4]) and in experiment [2] (setting [4]) was 50 to 100% each time. Also, the mortality at 200 ppm in experiment [3] (setting [5]) is 0 to 80%.

For `Cc1cc(Cl)ccc1NC(=S)NC1CC1c1ccc(-c2ncn(-c3ccc(OC(F)(F)F)cc3)n2)cc1` (centres unmarked) [Compound 4, 1-(4-Chloro-2-methylphenyl)-3-(2-{4-[1-(4-trifluoromethoxyphenyl)-1H-[1,2,4]triazol-3-yl]phenyl}cyclopropyl)thiourea], the mortality at 50 µg/cm2 in experiment [1] (setting [4]) and in experiment [2] (setting [4]) was 50 to 100% each time. Further, in experiment [3] (setting [5]), the mortality at 200 ppm amounted to 0%.

For `CC(C)(C)c1ccccc1OC(=O)NC1CC1c1ccc(-c2ncn(-c3ccc(OC(F)(F)F)cc3)n2)cc1` (centres unmarked) [Compound 24, 2-tert-Butylphenyl 2-(4-(1-(4-(trifluoromethoxy)phenyl)-1H-1,2,4-triazol-3-yl)phenyl)-cyclopropylcarbamate], the mortality at 50 µg/cm2 in experiment [1] is 50 to 100%; in experiment [2], 0%. Moreover, in experiment [3] (foliar), the mortality at 200 ppm is 0 to 80%.

As to `COc1ccc(NC(=S)NC2CC2c2ccc(-c3ncn(-c4ccc(OC(F)(F)F)cc4)n3)cc2)c(C(C)C)c1` (centres unmarked) [Compound 13, 1-(2-Isopropyl-4-methoxyphenyl)-3-(2-(4-(1-(4-(trifluoromethoxy)phenyl)-1H-1,2,4-triazol-3-yl)phenyl)cyclopropyl)thiourea], the mortality at 50 µg/cm2 in experiment [1] (setting [4]) and in experiment [2] (setting [4]) was 50 to 100% throughout. The mortality at 200 ppm in experiment [3] (setting [5]) stood at 0%.

Regarding `COc1ccc(NC(=S)NC2CC2c2ccc(-c3ncn(-c4ccc(OC(F)(F)F)cc4)n3)cc2)c(OC)c1` (centres unmarked) [Compound 10, 1-(2,4-Dimethoxyphenyl)-3-(2-{4-[1-(4-trifluoromethoxyphenyl)-1H-[1,2,4]triazol-3-yl]phenyl}cyclopropyl)thiourea], the mortality at 50 µg/cm2 in experiment [1] (setting [4]) and in experiment [2] (setting [4]) was 50 to 100% each time. Besides, the mortality at 200 ppm in experiment [3] (setting [5]) is 0 to 80%.

`FC(F)(F)Oc1ccc(-n2cnc(-c3ccc(C4CC4NC(=S)Nc4ccc(C(F)(F)F)cc4)cc3)n2)cc1` (centres unmarked) [Compound 8, 1-(2-{4-[1-(4-Trifluoromethoxyphenyl)-1H-[1,2,4]triazol-3-yl]phenyl}-cyclopropyl)-3-(4-trifluoromethylphenyl)thiourea]: the mortality at 50 µg/cm2 in experiment [1] (setting [4]) and in experiment [2] (setting [4]) was 50 to 100% in each case. Besides, the mortality at 200 ppm in experiment [3] (setting [5]) was in the range of 0 to 80%.

On to `Cc1cc(C)c(/N=C(/NC2CC2c2ccc(-c3ncn(-c4ccc(OC(F)(F)F)cc4)n3)cc2)SCOC(=O)C(C)C)c(C)c1` (centres unmarked) [Compound 16, (Z)-(N′-Mesityl-N-(2-(4-(1-(4-(trifluoromethoxy)phenyl)-1H-1,2,4-triazol-3-yl)phenyl)cyclopropyl)carbamimidoylthio)methyl isobutyrate], for which the mortality at 200 ppm in experiment [3] (setting [5]) was 0%.

These data come from patent US9107410B2, “Pesticidal compositions and processes related thereto” (Dow AgroSciences LLC, priority 2011, dated 2015).
